System: human keratinocyte cell line (HaCaT)
Test: Cytokine secretion on protein level in activated human keratinocyte cell line HaCaT (13-plex FACS / Luminex, supernatant)
Format: cell-based
Method in brief: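 Primary T-cells from peripheral blood of healthy volunteers, or HaCaT cells, were activated with PMA/Ionomycin or IFN-γ for 48 h and treated with tripeptides. Supernatants were collected 48 h and 72 h after stimulation and cytokines (IL-1, IL-2, IL-6, IL-12p70, IL-17, IFN-γ, TNF-α) were measured by 13-plex FACS.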

[1] = HaCaT stimulated with IFN-γ, 10^−9M
[2] = HaCaT stimulated with IFN-γ, 10^−9M, excluded from the final assessment
[3] = HaCaT stimulated with IFN-γ, substance 10^−9M
[4] = HaCaT stimulated with PBS, 10^−9M
[5] = HaCaT stimulated with PBS, 10^−9M, excluded from the final assessment
[6] = HaCaT stimulated with PBS, substance 10^−9M
[7] = HaCaT stimulated with PMA/Ionomycin, 10^−9M
[8] = HaCaT stimulated with PMA/Ionomycin, 10^−9M, excluded from the final assessment
[9] = HaCaT stimulated with PMA/Ionomycin, substance 10^−9M

alpha-melanocyte-stimulating hormone [α-MSH, reference compound]
IL-1 cytokine concentration [1]: 238.96 pg/mL
IL-2 cytokine concentration [1]: 119.87 pg/mL
IL-4 cytokine concentration [1]: 70.08 pg/mL
IL-5 cytokine concentration [1]: 184.1 pg/mL
IL-6 cytokine concentration [1]: 750.84 pg/mL
IL-9 cytokine concentration [1]: 83.5 pg/mL
IL-10 cytokine concentration [1]: 82.71 pg/mL
IL-13 cytokine concentration [1]: 55.34 pg/mL
IL-17 cytokine concentration [1]: 598.13 pg/mL
TNF-α cytokine concentration [1]: 67.75 pg/mL
IL-12p70 cytokine concentration [2]: 0 pg/mL
IL-22 cytokine concentration [2]: 0 pg/mL
IL-1 cytokine concentration [3]: 0 pg/mL
IL-2 cytokine concentration [3]: 0 pg/mL
IL-4 cytokine concentration [3]: 0 pg/mL
IL-5 cytokine concentration [3]: 0 pg/mL
IL-6 cytokine concentration [3]: 202.37 pg/mL
IL-9 cytokine concentration [3]: 0 pg/mL
IL-10 cytokine concentration [3]: 0 pg/mL
IL-12 cytokine concentration [3]: 0 pg/mL
IL-12p70 cytokine concentration [3]: 0 pg/mL
IL-13 cytokine concentration [3]: 0 pg/mL
IL-17 cytokine concentration [3]: 95.44 pg/mL
IL-22 cytokine concentration [3]: 0 pg/mL
TNF-α cytokine concentration [3]: 45.91 pg/mL
IFN-γ cytokine concentration [4]: 365.47 pg/mL
IL-1 cytokine concentration [4]: 271.66 pg/mL
IL-2 cytokine concentration [4]: 251.78 pg/mL
IL-4 cytokine concentration [4]: 56.84 pg/mL
IL-5 cytokine concentration [4]: 150.8 pg/mL
IL-6 cytokine concentration [4]: 76.75 pg/mL
IL-9 cytokine concentration [4]: 124.69 pg/mL
IL-10 cytokine concentration [4]: 107.72 pg/mL
IL-13 cytokine concentration [4]: 65.47 pg/mL
IL-17 cytokine concentration [4]: 544.96 pg/mL
TNF-α cytokine concentration [4]: 97.16 pg/mL
IL-12p70 cytokine concentration [5]: 0 pg/mL
IL-22 cytokine concentration [5]: 9847.56 pg/mL
IFN-γ cytokine concentration [6]: 0 pg/mL
IL-1 cytokine concentration [6]: 0 pg/mL
IL-2 cytokine concentration [6]: 0 pg/mL
IL-4 cytokine concentration [6]: 118.52 pg/mL
IL-5 cytokine concentration [6]: 0 pg/mL
IL-6 cytokine concentration [6]: 15.22 pg/mL
IL-9 cytokine concentration [6]: 9.51 pg/mL
IL-10 cytokine concentration [6]: 39.54 pg/mL
IL-12 cytokine concentration [6]: 0 pg/mL
IL-12p70 cytokine concentration [6]: 0 pg/mL
IL-13 cytokine concentration [6]: 0 pg/mL
IL-17 cytokine concentration [6]: 0 pg/mL
IL-22 cytokine concentration [6]: 0 pg/mL
TNF-α cytokine concentration [6]: 0 pg/mL
IFN-γ cytokine concentration [7]: 617.26 pg/mL
IL-1 cytokine concentration [7]: 143.16 pg/mL
IL-2 cytokine concentration [7]: 98.72 pg/mL
IL-4 cytokine concentration [7]: 72.6 pg/mL
IL-5 cytokine concentration [7]: 131.91 pg/mL
IL-6 cytokine concentration [7]: 113.54 pg/mL
IL-9 cytokine concentration [7]: 105.55 pg/mL
IL-10 cytokine concentration [7]: 111.19 pg/mL
IL-13 cytokine concentration [7]: 55.34 pg/mL
IL-17 cytokine concentration [7]: 338.9 pg/mL
TNF-α cytokine concentration [7]: 103.98 pg/mL
IL-12p70 cytokine concentration [8]: 0 pg/mL
IL-22 cytokine concentration [8]: 9995.76 pg/mL
IFN-γ cytokine concentration [9]: 0 pg/mL
IL-1 cytokine concentration [9]: 0 pg/mL
IL-2 cytokine concentration [9]: 0 pg/mL
IL-4 cytokine concentration [9]: 113.12 pg/mL
IL-5 cytokine concentration [9]: 0 pg/mL
IL-6 cytokine concentration [9]: 179.03 pg/mL
IL-9 cytokine concentration [9]: 0 pg/mL
IL-10 cytokine concentration [9]: 93.2 pg/mL
IL-12 cytokine concentration [9]: 0 pg/mL
IL-12p70 cytokine concentration [9]: 0 pg/mL
IL-13 cytokine concentration [9]: 0 pg/mL
IL-17 cytokine concentration [9]: 0 pg/mL
IL-22 cytokine concentration [9]: 0 pg/mL
TNF-α cytokine concentration [9]: 0 pg/mL

Source: patent US10954269B2, “Anti-inflammatory tripeptides” (Dr. August Wolff Gmbh & Co. KG Arzneimittel, priority 2013, dated 2021)
